Reference: patent publication US10849906B2, “Use of Akt2 in diagnosis and treatment of tumor” (priority 2015, dated 2020)
pIC50: −log10 of the molar value.

Tests used:
Jurkat cells [1] = experiment: Apoptosis by Annexin V-FITC PI double staining, Jurkat; format: cell-based, human; details: compared to the only/single dexamethasone group; FIG. 2F, 4J
Experimental: (§1) Apoptosis was detected by Annexin V-FITC PI double staining method (flow cytometry kit (FITC, PI double staining), Sangon Biotech (Shanghai) Co., Ltd.)), and the collected cells were washed once with phosphate buffered saline (PBS) (135 mM NaCl, 2.7 mM KCl, 1.5 mM KH2PO4 and 8 mM K2HPO4, pH 7.2); the 4× binding buffer was diluted to a 1× binding buffer with deionized water, then the cells were resuspended with 195 ul of the 1× binding buffer at a cell density of 2-5×10^5/ml; 5 μl of Annexin V-FITC was added to the 195 μl of the cell resuspension and mixed, and incubated in dark at room temperature for 10 minutes; the cells were washed once with 200 μl of the 1× binding buffer, and then resuspended in 190 μl of the 1× binding buffer; 10 μl of propidium iodide (20 μg/ml) was added. A flow cytometry device (Beckman company) was used for detection, and the rate of apoptosis was analyzed using Summit software.
(§2) The cells were cultured in RPMI 1640 complete medium (Gibco company) containing 10% fetal bovine serum (FBS, Gibco company) in an incubator (Thermo company) at 5% CO2 and 37° C. until reaching logarithmic growth phase, then different concentrations of inhibitors and/or dexamethasone/ethanol/DMSO were added to the culture medium, followed by further culturing (for addition of dexamethasone/ethanol/DMSO, for 48 hours, and for addition of inhibitor, for 24 hours), and apoptosis was detected by Annexin V-FITC PI double staining and proteins were detected by Western blot, as described in Example 1.
(§3) As described in Example 3, the cells were cultured in RPMI 1640 complete medium containing 10% fetal bovine serum under 5% CO2 and 37° C. until reaching logarithmic growth phase, and then dexamethasone and different concentrations of Akt inhibitor were added to the culture medium, followed by further culture (for addition of dexamethasone/DMSO, for 48 hours, and for addition of the inhibitor, for 24 hours), the apoptosis was detected by Annexin V-FITC PI double staining method and proteins were detected by Western blot as described in Example 1 as well as the cell viability was detected by CCK-8 method.
The transfected cells were selected and passaged for 3 to 5 passages after resuscitation, with Interferin™ as transfection reagent, and the transfection procedure was performed in accordance with the instruction of the transfection reagent. In short, the cells of logarithmic growth phase were plated at 2×10^5/well, the cells were replaced with fresh complete medium (free of antibiotics) during transfection, siRNA was diluted with Opti-MEM and added with an appropriate amount of […]in™ and mixed, incubated at room temperature for 10 minutes prior to being added dropwise to the cells, and the cells were harvested at appropriate time. The cells were transfected with green fluorescein-labeled siRNA (FAM-siRNA) (siRNA at a final concentration of 20 μM, 1.25 μl/well), and the transfection efficiency was observed using a fluorescence microscope 24 hours later. The dexamethasone group was added 24 hours after transfection, followed by culture for further 24 hours, and then the cells were collected for observation; and the equal amount of anhydrous ethanol was added to the control group.

Daudi cells [2] = experiment: Apoptosis by Annexin V-FITC PI double staining, Daudi; format: cell-based, human; details: compared to the dexamethasone group; FIG. 2K, 4L
Experimental: as §1
as §2, with “1. […]” for “1.”

[3] = test system: Akt/FoxO3a/Bim signaling pathway in CCRF-CEM cells; experiment: Western blot of Akt/FoxO3a/Bim signaling pathway proteins in CCRF-CEM cells; format: cell-based, human; details: CCRF-CEM; inhibitors 0.8 μM; FIG. 5A
Experimental: The control group was not added with any reagents. All experiments were performed in triplicate.
Protein detection by Western blot: in the examples of the present invention, Akt antibody (rabbit derived), phosphorylated Akt antibody (rabbit derived), FoxO3a antibody (rabbit derived), phosphorylated FoxO3a antibody (rabbit derived) and GAPDH antibody (rabbit derived) and secondary antibodies were all purchased from CST company. The cells were collected in a centrifuge tube and centrifuged at 1000 rpm, the supernatant was discarded and the cells were washed twice with PBS pre-cold at 4° C.; cell lysis buffer (150 mM NaCl, 1% NP-40, 0.1% SDS, 2 μg/ml Aprotinin, 2 μg/ml Leupeptin, 1 mM PMSF, 1.5 mM EDTA, 1 mM sodium vanadate) was added and the cells were lysed on ice for 40 minutes, the cell lysate was centrifuged at 20000 rpm, 4° C. for 15 minutes, and the supernatant was collected; a protein loading buffer for sodium dodecyl sulfate polyacrylamide (SDS-PAGE) gel electrophoresis (1.25 mL 1MTris-HCl (pH6.8), 0.5 g SDS, 25 mg BPB, 2.5 mL glycerol, 5 mL deionized water) was added, followed by boiling for 5 minutes to denature proteins; the loading buffer containing denatured proteins was applied to 10% SDS-PAGE for electrophoresis at 120 V, and then transferred to a PVDF membrane (Sangon Biotech (Shanghai) Co., Ltd.) at 130 V for 1.5 hours; after the membrane transfer was completed, the PVDF membrane was immediately rinsed with a Western washing solution (150 mmol/L NaCl, 50 mmol/L Tris-HCl (pH 7.5)) for 1-2 minutes; added with 5% non-fat milk powder (Shanghai Biotechnology Co., Ltd.), agitated gently and then blocked at room temperature for 60 minutes; a primary antibody diluted appropriately with 5% non-fat milk powder was added, and incubated overnight at room temperature with gentle agitating; the primary antibody was recovered and the membrane was washed three times with the washing solution for 5-10 minutes each; a horseradish peroxidase-labeled secondary antibody diluted appropriately with the Western washing solution was added, and incubated at room temperature for 1 hour with gentle agitating; the secondary antibody was recovered and the membrane was washed three times with the Western washing solution for 5-10 minutes each. An appropriate amount of developing solution (DAB 4 mg, 30% hydrogen peroxide 15 μL, 0.01 M Tris-Cl (pH 7.5) 5 mL) was dropped on the PVDF membrane, the image was detected using a bioluminescence image colorimeter and a gel imaging system (Thermo company), and the quantitative analysis of bands was performed using Image Lab software.
as §2
Methods: CCRF-CEM cells were cultured in RPMI 1640 complete medium (Gibco company) containing 10% fetal bovine serum (FBS, Gibco company) in an incubator (Thermo company) at 5% CO2 and 37° C. until reaching logarithmic growth phase, then DMSO, dexamethasone and different inhibitors (DMSO: 0.1%, dexamethasone: 0.1 μM, inhibitors: 0.8 μM) were added to the culture medium, and further cultured (for addition of dexamethasone or DMSO, for 48 hours, and for addition of inhibitors, for 24 hours), and the proteins were detected by Western blot, as described in Example 1.

Daudi cells [4] = experiment: Cell viability by CCK-8 and combination index, Daudi; format: cell-based, human
Experimental: as §3
The inhibitory effect of two drugs (dexamethasone and an inhibitor) alone and in combination on various lymphocyte lines was observed by CCK-8 method (CCK-8 kit), and then the half-inhibitory concentration of each drug was calculated using the median effect equation, and the combination index (CI) of the two drugs used in combination was calculated using CompuSyn software.
(1) the lymphocytes of logarithmic growth phase were taken and made to a cell suspension of 5×10^4/mL, a blank control group (5 wells), a dexamethasone group (3 wells for each concentration, triplicates), a single inhibitor group (3 wells for each concentration, triplicates), a dexamethasone plus inhibitor group (3 wells for each combined concentration, triplicates) were prepared, 180 μL of the suspension was seeded to each well of a 96-well plate, and incubated for 24 hours in an incubator at 5% CO2 and 37° C.
Based on the drug resistance of cells, the ratio of two drugs was fixed. The dexamethasone group was cultured for 48 hours while the inhibitor group was cultured for 24 hours.
(3) 10 μl of CCK-8 was added to each well, and cultured for 2 hours, and the optical density (OD) was measured at 450 nm using an automatic microplate reader, and the proliferation inhibition rate of the drug on cell was calculated.
(4) the proliferation inhibition rate was calculated according to the following equation: cell proliferation inhibition rate=(1-average OD value in the test group/average OD value in the control group)×100%, and the effect of interaction between the two drugs was analyzed by Chou-Talalay combination index method.

[5] = test system: L-02 human-derived healthy liver cell line
[6] = test system: L-02 human-derived healthy liver cell line; experiment: CCK-8 viability of healthy liver cells L-02; details: FIG. 6A; for damage to liver cells: DEX 0.1 μM, inhibitors 0.8 μM
[7] = Toxicity in tumor-bearing nude mice (peripheral blood test, organ pathology)
CCRF-CEM cells = experiment: Cell viability by CCK-8 and combination index, CCRF-CEM; format: cell-based; details: Homo sapiens, dexamethasone alone (original), read-out: concentration of dexamethasone at which 50% viability of CCRF-CEM cells (IC50 value) was inhibited
Experimental: as §3
(§4) The inhibitory effect of two drugs (dexamethasone and an inhibitor) alone and in combination on various lymphocyte lines was observed by CCK-8 method (CCK-8 kit), and then the half-inhibitory concentration of each drug was calculated using the median effect equation, and the combination index (CI) of the two drugs used in combination was calculated using CompuSyn software. […]
(§5) (3) 10 μl of CCK-8 was added to each well, and cultured for 2 hours, and the optical density (OD) was measured at 450 nm using an automatic microplate reader, and the proliferation inhibition rate of the drug on cell was calculated. […]

CEM-DR cells = experiment: Cell viability by CCK-8 and combination index, CEM-DR; format: cell-based; details: Homo sapiens; dexamethasone alone (original); read-out: concentration of dexamethasone at which 50% viability of CEM-DR cells (IC50 value) was inhibited
Experimental: as §3, §4, §5

Jurkat cells [8] = experiment: Cell viability by CCK-8 and combination index, Jurkat; format: cell-based; details: Homo sapiens, dexamethasone alone (original), read-out: concentration of dexamethasone at which 50% viability of Jurkat cells (IC50 value) was inhibited
Experimental: as §3, §4, §5

For `O=c1[nH]c2ccccc2n1C1CCN(Cc2ccc(-c3nc4cc5nc[nH]c5cc4nc3-c3ccccc3)cc2)CC1` [Akti-1/2], the “apoptosis of Jurkat cells, inhibitor in combination with dexamethasone” value (Jurkat cells [1]) was “significantly increase”, the “apoptosis of Daudi cells, inhibitor in combination with dexamethasone” value (Daudi cells [2]) was “significantly increase” and the “expression of p-Akt1” value [3] was “reduced”. For the same compound, the “expression of p-Akt2” value [3] was “reduced”, the “effect of inhibitor in combination with dexamethasone in B lymphoma cells (in words)” value (Daudi cells [4]; B lymphoma cells, as shown in Table 1) was “moderate synergistic effect” and the “recovery of liver cell activity” value [5] was “gradually recovered after 24 hours of administration”. The “damage to liver cells” value [6] was “certain damage”, the liver cell activity ([6]; after 12 hours of administration) was 50.5% and the “liver pathology (HE staining)” value ([7]; 7-day administration, FIG. 8A, 8B) was “did not cause morphological changes of the liver tissues”. For the same compound, the “level of TBIL” value ([7]; compared to the NC group, FIG. 6I) was “significantly increased”, the “level of peripheral blood AST” value ([7]; compared to the normal saline group (NC), FIG. 3F, 6H) was “significantly increased” and the “level of peripheral blood ALT” value ([7]; compared to the normal saline group (NC), i.p. 7 days, FIG. 3F, 6G) was “significantly increased”.
Work on `C[C@@H]1C[C@H]2[C@@H]3CCC4=CC(=O)C=C[C@]4(C)[C@@]3(F)[C@@H](O)C[C@]2(C)[C@@]1(O)C(=O)CO` [dexamethasone] yielded a pIC50 (CCRF-CEM cells) of 6.52, a pIC50 (CEM-DR cells) of 3.86 and a pIC50 (Jurkat cells [8]) of 3.65. For the same compound, the pIC50 (Daudi cells [4]; Homo sapiens, Daudi, dexamethasone alone (original), read-out: concentration of dexamethasone at which 50% viability of Daudi cells (IC50 value) was inhibited) was 3.65, the “damage to liver cells” value [6] was “no damage to liver cells” and the “peripheral blood leukocyte level” value ([7]; compared to the NC group, FIG. 6J) was “no significant difference”. For the same compound, the “level of peripheral blood RBC” value ([7]; compared to the NC group, FIG. 6K) was “significantly increased”, the “level of peripheral blood HGB” value ([7]; compared to the NC group, FIG. 6L) was “significantly increased” and the “peripheral blood platelet level” value ([7]; compared to the NC group, FIG. 6M) was “no significant difference”. For the same compound, the blood glucose level ([7]; compared to the NC group, FIG. 6N) was “no significant difference” and the “peripheral blood creatinine level” value ([7]; compared to the NC group, FIG. 6O) was “no significant difference”.
